Measured values: ChEMBL document CHEMBL5634110, “Applications of oxetanes in drug discovery and medicinal chemistry” (Eur J Med Chem, 2023)
In brackets after ≈: the same amount, converted by molar mass. Each block holds one compound with its values, some of them ahead of it.

Assays:
[1] = Metabolic stability in human liver microsomes assessed as half life at 1 uM incubated for 60 mins by LC-MS/MS analysis; format: ADME, Microsome
Collagenase 3 = Collagenase 3 (Homo sapiens, UniProt P45452); test: Binding affinity to full length human recombinant MMP-13 using Mca-PLGL-Dpa-AR-NH2 as fluorogenic peptide substrate assessed as inhibition constant
[2] = Metabolic stability in rat liver microsomes assessed as half life at 1 uM incubated for 60 mins by LC-MS/MS analysis; format: ADME, Microsome
[3] = Kinetic solubility of compound in PBS buffer at 500 uM incubated for 18 hrs by HPLC analysis; format: physicochemical; conditions: read-out: Kinetic_solubility
[4] = Metabolic stability in mouse liver microsomes assessed as half life at 1 uM incubated for 60 mins by LC-MS/MS analysis; format: ADME, Microsome
[5] = molecular target: Hepatitis C virus NS5B RNA-dependent RNA polymerase (Hepatitis C virus, UniProt Q8JXU8); test: Inhibition of Hepatitis C virus NS5B polymerase; design: species or system Hepacivirus hominis
[6] = Apparent permeability of compound in phosphate buffer by PAMPA assay; format: ADME
[7] = Oral bioavailability in rat; format: ADME, organism-based; conditions: in vivo
[8] = Solubility of compound in PBS at pH 7.4; format: physicochemical
[9] = AUC in iv dosed rat; format: ADME, organism-based; conditions: in vivo
[10] = Half life in iv dosed rat; format: ADME, organism-based; conditions: in vivo
[11] = Inhibition of GST fused Bcl-xL (unknown origin) incubated for 5 min by TR-FRET assay; design: species or system Homo sapiens
[12] = molecular target: Apoptosis regulator Bcl-2 (Homo sapiens, UniProt P10415); test: Inhibition of Bcl-2 (unknown origin) by fluorescence polarization assay
[13] = Intrinsic clearance in rat liver microsomes; format: ADME, Microsome
[14] = Intrinsic clearance in human liver microsomes; format: ADME, Microsome; conditions: read-out: CLH
[15] = molecular target: T1, Developmentally-regulated GTP-binding protein 1 (Homo sapiens, UniProt Q9Y295); test: Inhibition of DRG1 (unknown origin)
T1 sequence (Q9Y295 whole entry): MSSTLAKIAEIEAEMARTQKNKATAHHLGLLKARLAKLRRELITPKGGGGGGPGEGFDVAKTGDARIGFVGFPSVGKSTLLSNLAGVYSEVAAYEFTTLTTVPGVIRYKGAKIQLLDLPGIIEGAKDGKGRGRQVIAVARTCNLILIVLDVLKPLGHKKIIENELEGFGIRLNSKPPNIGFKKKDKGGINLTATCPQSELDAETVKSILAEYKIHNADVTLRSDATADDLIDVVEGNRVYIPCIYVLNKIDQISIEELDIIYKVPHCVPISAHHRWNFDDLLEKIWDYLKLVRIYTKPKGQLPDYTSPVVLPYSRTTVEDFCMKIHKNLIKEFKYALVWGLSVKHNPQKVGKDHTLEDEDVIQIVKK

Z-138 = test: Growth inhibition of human Z138 cells; format: functional
[16] = Oral bioavailability in rat at 2 mg/kg; format: ADME, organism-based; conditions: in vivo
[17] = Oral bioavailability in monkey at 5 mg/kg; format: ADME, organism-based, Macaca mulatta; conditions: rhesus monkey, in vivo
Human orthopneumovirus = test: Antiviral activity against RSV type B assessed as viral growth inhibition; format: functional, organism-based; conditions: human respiratory syncytial virus
[18] = Tmax in rat at 5 mg/kg, po; format: ADME, organism-based; conditions: in vivo
[19] = Intrinsic clearance in mouse liver microsomes; format: ADME, Microsome; conditions: read-out: CLH
[20] = AUC (0 to 24 hrs) in rat at 5 mg/kg, po; format: ADME, organism-based; conditions: in vivo
[21] = Solubility of compound at pH 6.8; format: physicochemical; conditions: buffer

Chain of Apoptosis regulator Bcl-2 (P10415 whole entry): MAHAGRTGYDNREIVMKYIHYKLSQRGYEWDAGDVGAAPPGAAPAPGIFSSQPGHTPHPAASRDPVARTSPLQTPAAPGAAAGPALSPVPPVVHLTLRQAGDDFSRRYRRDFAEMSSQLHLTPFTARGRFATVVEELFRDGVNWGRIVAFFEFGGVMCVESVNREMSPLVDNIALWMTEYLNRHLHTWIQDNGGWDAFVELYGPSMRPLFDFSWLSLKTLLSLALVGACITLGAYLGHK
Chain of Hepatitis C virus NS5B RNA-dependent RNA polymerase (Q8JXU8 whole entry): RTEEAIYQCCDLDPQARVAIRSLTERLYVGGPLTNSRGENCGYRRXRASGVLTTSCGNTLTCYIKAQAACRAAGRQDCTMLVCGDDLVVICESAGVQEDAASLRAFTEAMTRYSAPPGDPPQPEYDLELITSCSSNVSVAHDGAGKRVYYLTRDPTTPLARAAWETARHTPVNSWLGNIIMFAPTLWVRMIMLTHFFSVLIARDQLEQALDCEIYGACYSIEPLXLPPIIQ

SMILES: CC(C)[C@H](NC(=O)c1ccc(-c2ccc(CCc3nc4c(c(=O)[nH]3)CCC4)c(F)c2)o1)C(=O)NC1COC1
- half-life at 1 µM [1]: 1.02 h
- Ki (Collagenase 3): 12.2 nM
- half-life at 1 µM [2]: 1.03 h
- solubility kinetic at 18 h, 500 µM [3]: 76.4 µM (≈ 39.9 µg/mL)
- half-life at 1 µM [4]: 1.73 h

SMILES: COC(C)(C)C#Cc1cnc2c(c1)[C@]1(COC(N)=N1)c1cc(-c3cccnc3F)ccc1O2
- Papp [6]: 12 ×10⁻⁶ cm/s

SMILES: COC(=O)Nc1nc2cc(C(=O)c3ccc(N(C)C4COC4)cc3)ccc2[nH]1
- bioavailability [7]: 73.1%
- solubility [8]: 137 µg/mL (≈ 360 µM)
- AUC [9]: 469 ng·h/mL
- half-life [10]: 5.5 h

SMILES: COc1cc(C(F)(F)F)ccc1COc1cccc(N2C=NN(Cc3nc4c(F)cc(C(=O)O)cc4n3C[C@@H]3CCO3)CC2)n1
- CLH [13]: 12 µL/min/mg
- microsomal CLint [14]: 12 µL/min/mg

SMILES: CC(=O)N1CCC(c2cc(Nc3cc(C#N)ccn3)nc(N3CCC(F)(F)C3)c2)CC1
- IC50 [15]: 180 nM

SMILES: CC(C)[C@H](NC(=O)c1ccc(-c2ccc(CNc3nc4c(c(=O)[nH]3)CCC4)c(F)c2)o1)C(=O)NC1COC1
- half-life at 1 µM [1]: 1.1 h
- GI50 (Z-138): 20 nM
- Ki (Collagenase 3): 10.3 nM
- half-life at 1 µM [2]: 1.67 h
- solubility kinetic at 18 h, 500 µM [3]: 32.7 µM (≈ 17.1 µg/mL)
- half-life at 1 µM [4]: 1.58 h

SMILES: CC(C)(O)C#Cc1cnc2c(c1)[C@]1(COC(N)=N1)c1cc(-c3cccnc3F)ccc1O2
- bioavailability [16]: 70%
- Papp [6]: 11 ×10⁻⁶ cm/s
- bioavailability [17]: 101%

SMILES: O=C(NC1CC1)c1cc2c(s1)-c1ccccc1N(C(=O)c1ccc(NC(=O)c3cccnc3N3CCC4(CC3)COC4)cc1)CC2
- EC50 (Human orthopneumovirus): > 100000 nM

SMILES: COc1cc(C#N)ccc1COc1cccc(N2C=NN(Cc3nc4c(F)cc(C(=O)O)cc4n3C[C@@H]3CCO3)CC2)n1
- microsomal CLint [14]: 6 µL/min/mg

Second part, the compound after the results:

- IC50 [5]: 10000 nM
SMILES: Nc1nc2c(ncn2[C@@H]2O[C@H](COP(=O)(O)OP(=O)(O)OP(=O)(O)O)[C@@H](O)[C@@]23CCO3)c(=O)[nH]1

- IC50 [11]: 105 nM
- IC50 [12]: 17.3 nM
SMILES: CC1(C)CCC(c2ccc(Cl)cc2)=C(CN2CCN(c3ccc(C(=O)NS(=O)(=O)c4ccc(OCC5(CN6CC(F)(F)C6)COC5)c(S(=O)(=O)C(F)(F)F)c4)cc3)CC2)C1

- IC50 [11]: 8.2 nM
SMILES: CC1(C)CCC(c2ccc(Cl)cc2)=C(CN2CCN(c3ccc(C(=O)NS(=O)(=O)c4ccc(N[C@H](CCN5CCOCC5)CSc5ccccc5)c(S(=O)(=O)C(F)(F)F)c4)cc3)CC2)C1 [NAVITOCLAX]

- Tmax [18]: 1 h
- microsomal CLint [19]: 306 µL/min/mg
- AUC(0-t) [20]: 2490 ng·h/mL
- solubility [21]: 28 µM (≈ 22.5 µg/mL)
SMILES: C=CC[C@@H]1/C=C(\C)C[C@H](C)C[C@H](OC)[C@H]2O[C@@](O)(C(=O)C(=O)N3CCCC[C@H]3C(=O)O[C@H](/C(C)=C/[C@@H]3CC[C@@H](O)[C@H](OC)C3)[C@H](C)[C@@H](O)CC1=O)[C@H](C)C[C@@H]2OC [TACROLIMUS ANHYDROUS]

- Tmax [18]: 1 h
- AUC(0-t) [20]: 49100 ng·h/mL
SMILES: CO[C@H]1C[C@@H](C)C/C(C)=C/[C@@H](C/C=C/C2(O)COC2)C(=O)C[C@H](O)[C@@H](C)[C@@H](/C(C)=C/[C@@H]2CC[C@@H](O)[C@H](OC)C2)OC(=O)[C@@H]2CCCCN2C(=O)C(=O)[C@]2(O)O[C@H]1[C@@H](OC)C[C@H]2C
